From US20140323500A1, “NADPH OXIDASE 4 INHIBITORS AND USE THEREOF” (GENKYOTEX SA, priority 2011, published 2014) come the findings set out here.

In the test the target is T1, human Nox4 (Homo sapiens, UniProt Q9NPH5).
T1 construct: expressed in transfected cells; host or cells: T-REx-293 (hNOX4 T-REx-293), tetracycline-induced; membrane fraction
T1 sequence (Q9NPH5 1-578): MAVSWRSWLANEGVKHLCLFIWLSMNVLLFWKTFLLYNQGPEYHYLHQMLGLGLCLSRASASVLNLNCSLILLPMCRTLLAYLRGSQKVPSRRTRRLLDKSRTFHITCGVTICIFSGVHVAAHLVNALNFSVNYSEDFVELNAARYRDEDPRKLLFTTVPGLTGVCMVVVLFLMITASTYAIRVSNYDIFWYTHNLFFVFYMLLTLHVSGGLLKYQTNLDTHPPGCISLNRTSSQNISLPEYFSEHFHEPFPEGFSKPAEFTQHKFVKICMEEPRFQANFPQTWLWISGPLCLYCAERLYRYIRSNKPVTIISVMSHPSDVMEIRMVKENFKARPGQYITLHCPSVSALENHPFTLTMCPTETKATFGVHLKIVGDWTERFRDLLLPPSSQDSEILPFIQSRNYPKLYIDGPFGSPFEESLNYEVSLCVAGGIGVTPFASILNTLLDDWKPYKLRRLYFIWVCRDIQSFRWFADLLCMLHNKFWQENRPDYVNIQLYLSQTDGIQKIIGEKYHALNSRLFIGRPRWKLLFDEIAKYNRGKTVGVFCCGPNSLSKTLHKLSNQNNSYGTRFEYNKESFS
T1 sequence (P13498 2-195 partner limits assumed): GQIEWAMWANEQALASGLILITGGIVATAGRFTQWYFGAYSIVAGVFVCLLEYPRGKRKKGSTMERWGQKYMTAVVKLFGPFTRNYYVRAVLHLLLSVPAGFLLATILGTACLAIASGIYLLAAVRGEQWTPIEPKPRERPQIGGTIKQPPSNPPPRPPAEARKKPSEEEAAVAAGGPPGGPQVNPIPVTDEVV
Nature of the test: ROS production by membranes expressing human Nox4, cell-free Amplex Red assay. It is filed as biochemical. The settings on record: cell-free membranes, Amplex Red; Cheng-Prusoff; average of at least three experiments in triplicate; read-out: Ki hNox4. In a few lines: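 Membranes from tetracycline-induced (1 μg/ml, 24 h) T-REx cells overexpressing human Nox4, incubated in PBS with Amplex Red, HRP and co-factors; NADPH starts ROS production. Compounds 1 nM-100 μM, 20 min at 37° C.; fluorescence (ex 544/em 590 nm) over 10 min; Ki via Cheng-Prusoff, ≥3 experiments in triplicate.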

Regarding `COc1ccc(-c2c3c(=O)n(-c4ccccc4OC)[nH]c3cc(=O)n2Cc2cccnc2)c(F)c1` [Compound (1), 4-(2-fluoro-4-methoxyphenyl)-2-(2-methoxyphenyl)-5-(pyridin-3-ylmethyl)-1H-pyrazolo[4,3-c]pyridine-3,6(2H,5H)-dione], the inhibitory constant (Ki) came to 75 nM.
